The values that follow come from publication PMC6508677, “Identification of druggable small molecule antagonists of the Plasmodium falciparum hexose transporter PfHT and assessment of ligand access to the glucose permeation pathway via FLAG-mediated protein engineering” (PLoS ONE, 2019).

Where “and” joins values, the source holds several entries; their conditions need not be identical. Equal entries are not always repeated. Where two headings read alike, the source gives them in different places.

In one assay the target is T1, hGLUT4 (Homo sapiens, UniProt P14672).
T1 construct: expressed in transfected cells; host or cells: HEK293 (HEK293-FLIP, native hGLUT1 knocked down by shRNA)
T1 sequence (P14672 1-509): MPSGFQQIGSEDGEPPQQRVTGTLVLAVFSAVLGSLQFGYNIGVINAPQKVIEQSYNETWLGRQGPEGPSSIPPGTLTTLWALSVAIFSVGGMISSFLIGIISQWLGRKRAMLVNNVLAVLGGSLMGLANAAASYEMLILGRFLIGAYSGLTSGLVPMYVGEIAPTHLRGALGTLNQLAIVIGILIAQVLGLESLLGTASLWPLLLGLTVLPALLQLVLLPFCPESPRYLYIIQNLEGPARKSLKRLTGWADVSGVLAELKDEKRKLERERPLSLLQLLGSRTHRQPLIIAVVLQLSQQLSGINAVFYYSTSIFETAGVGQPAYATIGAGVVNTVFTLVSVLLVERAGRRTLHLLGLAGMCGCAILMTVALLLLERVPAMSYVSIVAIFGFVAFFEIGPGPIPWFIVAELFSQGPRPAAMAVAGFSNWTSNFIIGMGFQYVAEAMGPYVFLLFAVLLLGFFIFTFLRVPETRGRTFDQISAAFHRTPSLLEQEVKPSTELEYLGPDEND
Description: 2-DG uptake by HEK293 cells overexpressing hGLUT4. The class given is cell-based. Particulars: for remaining activity at 0.001 µM: 0.001 µM compound; for remaining activity at 0.001 µM / remaining activity at 1.25 µM / remaining activity at 2.5 µM / remaining activity at 5 µM / remaining activity at 10 µM / remaining activity at 20 µM / remaining activity at 40 µM / remaining activity at 80 µM / remaining activity at 160 µM / remaining activity at 225 µM: read-out: 2-DG uptake (percent uptake relative to vehicle), AVE per experiment; for remaining activity at 1.25 µM: 1.25 µM compound; for remaining activity at 20 µM: 20 µM compound; for remaining activity at 40 µM: 40 µM compound; for remaining activity at 80 µM: 80 µM compound; for remaining activity at 160 µM: 160 µM compound; for remaining activity at 225 µM: 225 µM compound; for IC50: IC50 for inhibition of 2-DG uptake. The text has this: (§1) Generation of HEK293 cells overexpressing PfHT and human GLUTs 1–4 were described elsewhere. Briefly, HEK293 cells were transfected with pcDNA3.1 FLII12Pglu-7006 (Addgene), containing the fluorescence resonance energy transfer (FRET) glucose sensor (HEK293-FLIP) and PfHT, human GLUT1 (hGLUT1), hGLUT2, hGLUT3, hGLUT4, hGLUT5 or hGLUT8 using Optifect (Life Technologies) according to manufacturer’s specifications. To increase retention of GLUT8 at the plasma membrane, the dileucine sorting signal E^7E^8XXXLL was modified to R^7R^8XXXLL as described in [17]. Stable transfectants were selected for G418 and hygromycin resistance to select for FRET sensor and hexose transporter, respectively. HEK293-FLIP cells were also used to generate cells stably transfected with FLAG-tagged PfHT (FTPfHT). FLAG tag ([…]) followed by a triple glycine linker and a tobacco etch virus (TEV) protease site (ENLYFQS) followed by a triple glycine linker was added to the N-terminus of PfHT via PCR [18] using Phusion Hot Start II High-Fidelity DNA Polymerase (Fisher Scientific). Single clones were selected by comparing their abilities to transport glucose as assayed via FRET and radiolabeled hexose uptake. In all cell lines, except for HEK293 cells overexpressing hGLUT1 and hGLUT5, native hGLUT1 was knocked down using shRNA as described elsewhere. Transcript levels of the individual GLUTs expressed in each cell line are as described in [13, 15] and in S1 Fig.
(§2) Glucose uptake by P. falciparum was performed essentially as described. P. falciparum strain 3D7 was cultured in 100 mm tissue culture dishes (Techno Plastic Products) in a 2% suspension of human erythrocytes and RPMI 1640 medium until reaching > 7.5% parasitemia. Cells were pelleted via centrifugation and resuspended in RPMI 1640 medium. To determine the uptake of radiolabeled glucose into the parasite, parasites were isolated from infected erythrocytes by permeablization with saponin (0.05 w/v), followed by centrifugation, aspiration of supernatant and washing of the pellet 3X with saline solution (135 mM NaCl, 2 mM KCl, 25 mM HEPES, 0.2 mM glucose and 1 mM MgCl2; pH 7.1) to remove cellular debris. WU-1 or DMSO vehicle were added to 100 μl parasites (resuspended in saline) 5 min prior to the addition of 100 μl [^14C]2-DOG (0.2- μCi/ml final concentration). 2-DG uptake was stopped after 2 min by layering the entire reaction over 300 μl of an oil mixture (5:4 mix of dibutyl phthalate / dinonyl phthalate) in Eppendorf tubes and centrifuged at 15,850 × g for 2 mins. The ratio of the estimated intracellular concentration of radiolabel relative to the extracellular concentration were calculated as described. Uptake of radiolabeled hexose into HEK293 cells was measured in glucose-free HBSS as described previously. Briefly, cells were plated at 400,000 cells/well overnight at 37°C in 24-well plates pre-treated with PEI. After 30-min incubation at 37°C in glucose-free HBSS in the presence of vehicle or increasing concentrations of compound, 2-DG uptake was measured in glucose-free HBSS for 4 min at 37°C. Cultures were washed in ice-cold 1X PBS and lysed in 0.1% Triton X-100 in 1X PBS. Radiolabeled hexose uptake was determined by liquid scintillation counting (Ultima Gold, Thermo Fisher) and normalized to total protein per well. Uptake data are plotted as percent uptake relative to vehicle-treated cells. Kinetic analyses were performed using the indicated concentrations of substrate and WU-1, with quenching of uptake after 1 min incubation. Incubation times had been previously determined as being in the linear range of time-dependent radiolabeled hexose uptake (2 min for 2-DG uptake into freed parasites; 2 and 4 min for D-Frc and 2-DG uptake HEK cell lines, respectively). Data were fit by least squares nonlinear regression analysis using GraphPad Prism 6.0 software.

Another assay concerns the target T2, hGLUT1 (Homo sapiens, UniProt P11166).
T2 construct: expressed in transfected cells; host or cells: HEK293 (HEK293-FLIP); native hGLUT1 not knocked down in this line
T2 sequence (P11166 1-492): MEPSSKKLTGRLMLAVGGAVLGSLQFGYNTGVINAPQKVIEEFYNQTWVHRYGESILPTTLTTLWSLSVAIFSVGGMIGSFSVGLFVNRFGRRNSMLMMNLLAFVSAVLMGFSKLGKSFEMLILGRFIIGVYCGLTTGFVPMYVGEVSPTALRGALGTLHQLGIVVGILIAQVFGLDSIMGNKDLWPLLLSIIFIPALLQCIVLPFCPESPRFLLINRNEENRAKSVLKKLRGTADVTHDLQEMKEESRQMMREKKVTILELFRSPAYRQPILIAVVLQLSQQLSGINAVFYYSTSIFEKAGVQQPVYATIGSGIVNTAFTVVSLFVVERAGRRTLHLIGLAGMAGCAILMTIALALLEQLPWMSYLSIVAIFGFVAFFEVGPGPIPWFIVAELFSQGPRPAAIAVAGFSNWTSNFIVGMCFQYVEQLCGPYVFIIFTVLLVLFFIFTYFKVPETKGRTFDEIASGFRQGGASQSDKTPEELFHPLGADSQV
Put plainly: 2-DG uptake by HEK293 cells overexpressing hGLUT1. The class given is cell-based. Conditions: for IC50 for inhibition of 2-DG uptake: GLUT1 cell line; for inhibition at 5 µM: 5 μM compound.
Text: as §1, §2

[1] abbreviates: HEK293, 4 min, GLUT4, 2.5 µM compound.
Where [2] appears, read: HEK293, 4 min, GLUT4, 5 µM compound.
The mark [3] stands for this setting: HEK293, 4 min, GLUT4, 10 µM compound.
Setting [4] is: GLUT4 cell line, mean/reported value.
Setting [5] is: HEK293, 4 min, GLUT1, read-out: % Inhibition of 2-DG uptake vs vehicle.

As usually defined, the inhibition is the change of the read-out against control, counted positive when it falls. As to `COc1cc(/C=C2\COC/C(=C\c3cc(OC)c(OC)c(OC)c3)C2=O)cc(OC)c1OC` [WU-5, (3E,5E)-3,5-bis[(3,4,5-trimethoxyphenyl)methylidene]oxan-4-one], the inhibition at 2.5 µM on hGLUT4 (HEK293, 4 min, GLUT4, 2.5 µM compound, read-out: % Inhibition of 2-DG uptake vs vehicle) was about 45%; at hGLUT1 (HEK293, 4 min, GLUT1, 2.5 μM compound, read-out: % Inhibition of 2-DG uptake vs vehicle) it was 2.94%.
For orientation: IC50 means the point on the concentration scale where inhibition reaches its midpoint. Low values mean higher potency, high ones lower potency. On to `Cc1ccc(S(=O)(=O)CCNC(=O)c2c(-c3c(Cl)cccc3Cl)noc2C)cc1` [WU-1, 3-(2,6-dichlorophenyl)-5-methyl-N-[2-(4-methylbenzenesulfonyl)ethyl]-1,2-oxazole-4-carboxamide], for which, on hGLUT4 (GLUT4, Expt 1-3), the “IC50 for inhibition of 2-DG uptake, individual experiments” value was “ambiguous”. In addition, the remaining activity at 0.001 µM on hGLUT4 (HEK293, 4 min, GLUT4) is 100%. Besides, the remaining activity at 1.25 µM on hGLUT4 (HEK293, 4 min, GLUT4) stood at 99.2%. Besides, the remaining activity at 2.5 µM on hGLUT4 (setting [1]) was determined as 96.1%. Besides, the remaining activity at 5 µM on hGLUT4 (setting [2]) was 89.1%; on hGLUT4 (HEK293, 4 min), 102%. The remaining activity at 10 µM worked out at 94% at hGLUT4 (setting [3]) and 83.2% at hGLUT4 (HEK293, 4 min). Besides, at hGLUT4 (HEK293, 4 min, GLUT4), the remaining activity at 20 µM came to 88.4%. For the same compound, the remaining activity at 40 µM on hGLUT4 (HEK293, 4 min, GLUT4) worked out at 86.8%. In addition, at hGLUT4 (HEK293, 4 min, GLUT4), the remaining activity at 80 µM turned out to be 74.7%. Moreover, on hGLUT4 (HEK293, 4 min, GLUT4), the remaining activity at 160 µM is 64.7%. Besides, at hGLUT4 (HEK293, 4 min, GLUT4), the remaining activity at 225 µM worked out at 61.9%. The inhibition at 5 µM was -1.91% at hGLUT4 (HEK293, 4 min, read-out: % Inhibition of 2-DG uptake vs vehicle) and -2.1% at hGLUT1 (setting [5]). The compound also came in with an IC50 against hGLUT4 (setting [4]) of over 100 µM. Besides, the “2-DG uptake (percent uptake relative to vehicle)” value at hGLUT1 (GLUT1, 0.001 µM compound) stood at 100; at hGLUT1 (GLUT1, 1.25 µM compound) it was 99.74; on hGLUT1 (GLUT1, 2.5 µM compound), 109.88; on hGLUT1 (GLUT1, 5 µM compound) it was 102.1; on hGLUT1 (GLUT1, 10 µM compound) it was 100.82; on hGLUT1 (GLUT1, 20 µM compound), 110.03. For the same compound, the “2-DG uptake (percent uptake relative to vehicle)” value on hGLUT1 (GLUT1, 40 µM compound) turned out to be 120.62; on hGLUT1 (GLUT1, 80 µM compound), 121.35; at hGLUT1 (GLUT1, 160 µM compound), 125.18; on hGLUT1 (GLUT1, 225 µM compound), 132.09. In addition, at hGLUT1, the “IC50 for inhibition of 2-DG uptake” value was “n.i”.
Regarding `COc1c(Br)cc([N+](=O)[O-])c(OC)c1C(=O)NC(=O)Nc1c(C)cccc1Cl` [WU-2, 3-(3-bromo-2,6-dimethoxy-5-nitrobenzoyl)-1-(2-chloro-6-methylphenyl)urea], the “Maximum Inhibition (%)” value on hGLUT4 (2-DG uptake, GLUT4 cell line) is on record as 40.0%. Also, on hGLUT4 (HEK293, 4 min, GLUT4), the remaining activity at 0.001 µM came out at 100%. On hGLUT4 (HEK293, 4 min, GLUT4), the remaining activity at 1.25 µM is 95.3%. Also, the remaining activity at 2.5 µM at hGLUT4 (setting [1]) came out at 91.7%. Besides, the remaining activity at 5 µM at hGLUT4 (setting [2]) came out at 86.8%. Also, the inhibition at 5 µM on hGLUT4 (HEK293, 4 min, GLUT4, 5 µM compound, read-out: % Inhibition of 2-DG uptake vs vehicle) is 10 to 12%; at hGLUT1 (setting [5]), -7.75%. Besides, at hGLUT4 (setting [3]), the remaining activity at 10 µM stood at 88.3%. Further, the remaining activity at 20 µM at hGLUT4 (HEK293, 4 min, GLUT4) turned out to be 74.1%. Further, the remaining activity at 40 µM on hGLUT4 (HEK293, 4 min, GLUT4) is 66.7%. At hGLUT4 (HEK293, 4 min, GLUT4), the remaining activity at 80 µM is 61%. Besides, the remaining activity at 160 µM at hGLUT4 (HEK293, 4 min, GLUT4) stood at 55.7%. For the same compound, the remaining activity at 225 µM at hGLUT4 (HEK293, 4 min, GLUT4) came out at 63.7%. For the same compound, the IC50 at hGLUT4 (setting [4]) was 18.5 ± 3.5 µM; at hGLUT4 (individual experiments, GLUT4, Expt 1-3), 14.2 µM and 25.4 µM and 15.9 µM. Moreover, the “2-DG uptake (percent uptake relative to vehicle)” value at hGLUT1 (GLUT1, 0.001 µM compound) is on record as 100; on hGLUT1 (GLUT1, 1.25 µM compound), 114.79; on hGLUT1 (GLUT1, 2.5 µM compound), 107.57; at hGLUT1 (GLUT1, 5 µM compound) it was 107.75; on hGLUT1 (GLUT1, 10 µM compound), 114.4; at hGLUT1 (GLUT1, 20 µM compound), 108.02. Also, the “2-DG uptake (percent uptake relative to vehicle)” value at hGLUT1 (GLUT1, 40 µM compound) was found to be 132.21; on hGLUT1 (GLUT1, 80 µM compound), 130.08; at hGLUT1 (GLUT1, 160 µM compound), 118.85; at hGLUT1 (GLUT1, 225 µM compound), 129.55. For the same compound, on hGLUT1, the “IC50 for inhibition of 2-DG uptake” value was “n.i”.
`COc1cc(/C=N/NC(=O)c2cc(-c3ccccc3)sc2N)cc(OC)c1OC` [WU-3, 2-amino-5-phenyl-N'-[(E)-(3,4,5-trimethoxyphenyl)methylidene]thiophene-3-carbohydrazide]: on hGLUT1 (HEK293, 4 min, GLUT1, 10 μM compound, read-out: % Inhibition of 2-DG uptake vs vehicle), the inhibition at 10 µM is at least 50%.
